Our source for the IC50 values is patent publication US10954214B2 (Janssen Pharmaceutica NV, priority 2016, dated 2021).

pIC50: −log10 of the molar value. Read-outs that look alike come from different tables or passages of the source.

Experiment [1] has as its system IL6 secretion by OCI-LY3 ABC-DLBCL cells. The experiment is described as follows: Human IL6 Mesoscale assay (OCI-LY3). It is filed as cell-based. The conditions noted are these: 24 h. A digest of the protocol: (§1)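 Compounds tested from 15 μM to 58.6 nM (twofold, 9 concentrations) on 100,000 cells per well over 24 h at 37° C, without beta-mercaptoethanol. Secreted cytokine in supernatant detected by MSD electrochemiluminescence; scaling used DMSO as maximum and RN486 as full inhibition.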

A further experiment has as its system OCI-Ly3 cells. The experiment is described as follows: 4-day proliferation assay, OCI-Ly3. It is filed as cell-based, human. Particulars: 4 days incubation, CellTiterGLO, read-out: Anti-proliferation: OCI-LY-3 IC50. A digest of the protocol:
(§2)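 TMD8 and OCI-Ly3 cells were seeded at 10,000 per well and grown 4 days at 37° C, 5% CO2 without beta-mercaptoethanol. Viability was read by CellTiter-Glo luminescence. IC50 and Hill slope were fitted relative to the low control median.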

For experiment [2], the system named is IL6 secretion by TMD8 ABC-DLBCL cells. The experiment is described as follows: Human IL6 Mesoscale assay (TMD-8). The experiment is classed as cell-based. Particulars: Homo sapiens, TMD8; TMD-8 cells, 24 h. A digest of the protocol: as §1
Experiment [3] concerns IL10 secretion by TMD8 ABC-DLBCL cells. Put plainly: Human IL10 Mesoscale assay (TMD-8). It is filed as cell-based. Particulars: Homo sapiens, TMD8; TMD-8 cells, 24 h. A digest of the protocol: as §1
Experiment [4] has as its system IL10 secretion by OCI-LY3 ABC-DLBCL cells. Put plainly: Human IL10 Mesoscale assay (OCI-LY3). The experiment is classed as cell-based. Particulars: 24 h. The essentials:
as §1

The subject of another experiment is TMD8 cells. Put plainly: 4-day proliferation assay, TMD8. The experiment is classed as cell-based. The conditions noted are these: 4 days incubation, CellTiterGLO, read-out: Anti-proliferation: TMD-8 IC50. The essentials: as §2
For experiment [5], the target named is full-length MALT1 protein (Strep-MALT1(1-824)-His) (Homo sapiens (Human), UniProt Q9UDY8). Put plainly: MALT1 Biochemical Protease Assay (Ac-LRSR-AMC substrate). The conditions noted are these: 10 nM FL MALT1, 200 μM Ac-LRSR-AMC, 4 h at RT; read-out: MALT1_Biochemical activity (Ac-LRSR-amc) IC50. The essentials:
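Full-length MALT1 pre-incubated with compounds (30 μM to 0.5 nM, 11 threefold steps) for 50 min at RT. After Ac-LRSR-AMC was added, the reaction ran 4 h at RT and AMC fluorescence was read. IC50 and Hill slope from curve fitting against no-enzyme and no-compound controls.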

full-length MALT1 protein (Strep-MALT1(1-824)-His), sequence (Q9UDY8 whole entry): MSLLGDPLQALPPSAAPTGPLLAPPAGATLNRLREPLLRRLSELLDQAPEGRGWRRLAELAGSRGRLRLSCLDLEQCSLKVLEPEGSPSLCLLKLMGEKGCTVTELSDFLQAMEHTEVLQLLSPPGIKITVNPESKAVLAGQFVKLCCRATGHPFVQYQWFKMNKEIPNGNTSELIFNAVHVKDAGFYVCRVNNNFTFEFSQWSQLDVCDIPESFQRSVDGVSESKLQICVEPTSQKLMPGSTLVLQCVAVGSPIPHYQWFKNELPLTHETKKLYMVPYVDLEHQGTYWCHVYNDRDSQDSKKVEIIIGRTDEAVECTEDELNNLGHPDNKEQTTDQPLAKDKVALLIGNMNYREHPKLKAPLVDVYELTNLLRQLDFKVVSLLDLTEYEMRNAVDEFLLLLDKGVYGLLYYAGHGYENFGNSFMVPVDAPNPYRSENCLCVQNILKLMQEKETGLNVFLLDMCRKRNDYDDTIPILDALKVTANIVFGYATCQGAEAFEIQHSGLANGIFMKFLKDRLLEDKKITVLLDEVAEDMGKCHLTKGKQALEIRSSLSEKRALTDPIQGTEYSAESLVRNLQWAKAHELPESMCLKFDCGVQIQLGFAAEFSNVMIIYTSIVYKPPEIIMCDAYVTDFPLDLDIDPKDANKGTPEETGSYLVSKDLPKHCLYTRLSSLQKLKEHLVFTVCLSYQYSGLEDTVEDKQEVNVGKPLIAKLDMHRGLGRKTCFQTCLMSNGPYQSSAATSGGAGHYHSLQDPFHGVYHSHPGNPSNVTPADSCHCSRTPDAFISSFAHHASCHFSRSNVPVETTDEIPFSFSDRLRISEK

In the case of `N#Cc1cc(NC(=O)c2cnn(-c3ccnc4ccccc34)c2C(F)(F)F)ccc1-n1nccn1`, the pIC50 in experiment [1] (Homo sapiens) was 7.47; in the experiment on OCI-Ly3 cells (Homo sapiens, 96 h), 6.39; in experiment [2] it was 6.96; in experiment [3], 7.00; in experiment [4] (Homo sapiens) it was 7.40; in the experiment with TMD8 cells (Homo sapiens, 96 h) it was 5.42.
Consider `O=C(Nc1cnc(-n2ncc(CO)n2)c(Cl)c1)c1cnn(-c2cccc3c(=O)[nH]ccc23)c1C(F)(F)F` [Cpd 115, N-(5-chloro-6-(4-(hydroxymethyl)-2H-1,2,3-triazol-2-yl)pyridin-3-yl)-1-(1-oxo-1,2-dihydroisoquinolin-5-yl)-5-(trifluoromethyl)-1H-pyrazole-4-carboxamide], for which the pIC50 is 7.92 in experiment [5]; 7.89 in experiment [1] (Homo sapiens); 5.92 with OCI-Ly3 cells (Homo sapiens, 96 h); 7.27 in experiment [2]; 7.34 in experiment [3]; 8.00 in experiment [4] (Homo sapiens). Further, in the experiment with TMD8 cells (Homo sapiens, 96 h), the pIC50 was 4.70.
Regarding `O=C(Nc1cnc(-n2nccn2)c(Cl)c1)c1cnn(-c2cccc3c(=O)[nH]ccc23)c1C(F)(F)F` [Cpd 116, N-(5-chloro-6-(2H-1,2,3-triazol-2-yl)pyridin-3-yl)-1-(1-hydroxyisoquinolin-5-yl)-5-(trifluoromethyl)-1H-pyrazole-4-carboxamide], the pIC50 in experiment [5] is 7.82; in experiment [1] (Homo sapiens), 7.74; in the experiment with OCI-Ly3 cells (Homo sapiens, 96 h), 6.46; in experiment [2], 7.89; in experiment [3], 7.60; in experiment [4] (Homo sapiens), 7.74. The pIC50 with TMD8 cells (Homo sapiens, 96 h) is 5.16.
As for `O=C(Nc1ccc(-n2nccn2)c(Cl)c1)c1cnn(-c2cccc3c(=O)[nH]ccc23)c1C(F)(F)F` [Cpd 129, N-(3-chloro-4-(2H-1,2,3-triazol-2-yl)phenyl)-1-(1-oxo-1,2-dihydroisoquinolin-5-yl)-5-(trifluoromethyl)-1H-pyrazole-4-carboxamide], the pIC50 in experiment [5] was 7.80; in experiment [1] (Homo sapiens), 7.74; with OCI-Ly3 cells (Homo sapiens, 96 h), 6.75; in experiment [2] it was 6.92; in experiment [3] it was 6.91; in experiment [4] (Homo sapiens), 7.85. Besides, the pIC50 in the experiment with TMD8 cells (Homo sapiens, 96 h) was 5.61.
On to `CN(C)Cc1cnn(-c2ncc(NC(=O)c3cnn(-c4cccc5ncccc45)c3C(F)(F)F)cc2Cl)n1` [Cpd 137, N-(5-chloro-6-(4-((dimethylamino)methyl)-2H-1,2,3-triazol-2-yl)pyridin-3-yl)-1-(quinolin-5-yl)-5-(trifluoromethyl)-1H-pyrazole-4-carboxamide], for which the pIC50 was 7.64 in experiment [5]; 7.59 in experiment [1] (Homo sapiens); 6.09 with OCI-Ly3 cells (Homo sapiens, 96 h); 6.77 in experiment [2]; 6.70 in experiment [3]; 7.77 in experiment [4] (Homo sapiens). For the same molecule, the pIC50 in the experiment on TMD8 cells (Homo sapiens, 96 h) is 5.62.
In the case of `O=C(Nc1cnc(-n2nccn2)c(Cl)c1)c1cnn(-c2cccc3ncsc23)c1C(F)(F)F` [Cpd 153, 1-(benzo[d]thiazol-7-yl)-N-(5-chloro-6-(2H-1,2,3-triazol-2-yl)pyridin-3-yl)-5-(trifluoromethyl)-1H-pyrazole-4-carboxamide], the pIC50 was 7.92 in experiment [5]; 7.27 in experiment [1] (Homo sapiens); 6.58 with OCI-Ly3 cells (Homo sapiens, 96 h); 6.85 in experiment [2]; 6.79 in experiment [3]; 7.09 in experiment [4] (Homo sapiens). Also, in the experiment with TMD8 cells (Homo sapiens, 96 h), the pIC50 is 5.42.
Take `O=C(Nc1cnc(-n2nccn2)c(Cl)c1)c1cnn(-c2cccc3scnc23)c1C(F)(F)F` [Cpd 306, 1-(benzo[d]thiazol-4-yl)-N-(5-chloro-6-(2H-1,2,3-triazol-2-yl)pyridin-3-yl)-5-(trifluoromethyl)-1H-pyrazole-4-carboxamide]: the pIC50 was 7.24 in experiment [5]; under 5.52 in experiment [1] (Homo sapiens); 6.27 in the experiment with OCI-Ly3 cells (Homo sapiens, 96 h); under 5.52 in experiment [2]; under 5.52 in experiment [3]; 5.58 in experiment [4] (Homo sapiens). In the experiment with TMD8 cells (Homo sapiens, 96 h), the pIC50 is 5.82.
With `N#Cc1cc(NC(=O)c2cnn(-c3ncnc4ccsc34)c2C(F)(F)F)cnc1-n1nccn1` [Cpd 315, N-(5-cyano-6-(2H-1,2,3-triazol-2-yl)pyridin-3-yl)-1-(thieno[3,2-d]pyrimidin-4-yl)-5-(trifluoromethyl)-1H-pyrazole-4-carboxamide], the pIC50 is 7.48 in experiment [5]; 7.02 in experiment [1] (Homo sapiens); 5.96 in the experiment on OCI-Ly3 cells (Homo sapiens, 96 h); 6.35 in experiment [2]; 6.47 in experiment [3]; 6.88 in experiment [4] (Homo sapiens). Also, the pIC50 in the experiment on TMD8 cells (Homo sapiens, 96 h) was 5.17.
`Cc1cc(-n2nccn2)c(C#N)cc1NC(=O)c1cnn(-c2cccc3c(=O)[nH]ccc23)c1C(F)(F)F` [Cpd 446, N-(5-cyano-2-methyl-4-(2H-1,2,3-triazol-2-yl)phenyl)-1-(1-oxo-1,2-dihydroisoquinolin-5-yl)-5-(trifluoromethyl)-1H-pyrazole-4-carboxamide]: the pIC50 in experiment [5] is 7.49; in experiment [1] (Homo sapiens), 7.66; in the experiment on OCI-Ly3 cells (Homo sapiens, 96 h), 5.97; in experiment [4] (Homo sapiens), 7.89; in the experiment on TMD8 cells (Homo sapiens, 96 h), under 4.70.
Consider `O=C(Nc1cnc(-n2nccn2)c(Cl)c1)c1cnn(-c2cncc3sccc23)c1C(F)(F)F` [Cpd 447, N-(5-chloro-6-(2H-1,2,3-triazol-2-yl)pyridin-3-yl)-1-(thieno[2,3-c]pyridin-4-yl)-5-(trifluoromethyl)-1H-pyrazole-4-carboxamide], for which the pIC50 was 6.35 in experiment [5]; 7.34 in experiment [1] (Homo sapiens); 6.50 with OCI-Ly3 cells (Homo sapiens, 96 h); 7.38 in experiment [4] (Homo sapiens); 5.66 in the experiment on TMD8 cells (Homo sapiens, 96 h).
On to `O=C(Nc1cnc(-n2nccn2)c(Cl)c1)c1cnn(-c2cnc(O)c3ccccc23)c1C(F)(F)F` [Cpd 448, N-(5-chloro-6-(2H-1,2,3-triazol-2-yl)pyridin-3-yl)-1-(1-hydroxyisoquinolin-4-yl)-5-(trifluoromethyl)-1H-pyrazole-4-carboxamide], for which the pIC50 in experiment [5] was 5.89; in experiment [1] (Homo sapiens) it was 6.93; with OCI-Ly3 cells (Homo sapiens, 96 h), 6.26; in experiment [4] (Homo sapiens) it was 7.10; in the experiment with TMD8 cells (Homo sapiens, 96 h), 5.25.
In the same order, the values of `O=C(Nc1cnc(-n2nccn2)c(Cl)c1)c1cnn(-c2ccnc3ccccc23)c1C(F)(F)F` [Cpd 450, N-(5-chloro-6-(2H-1,2,3-triazol-2-yl)pyridin-3-yl)-1-(quinolin-4-yl)-5-(trifluoromethyl)-1H-pyrazole-4-carboxamide] are 8.00, 6.97, 6.53, 7.15 and 5.55.
For the molecule “N-(4-(4-(aminomethyl)-1H-pyrazol-1-yl)-3-chlorophenyl)-1-(quinolin-5-yl)-5-(trifluoromethyl)-1H-pyrazole-4-carboxamide [Cpd 174]”, the pIC50 is 7.23 in experiment [5]; 6.60 in experiment [1]; 6.09 in the experiment on OCI-Ly3 cells; 6.95 in experiment [4]; 5.77 in the experiment with TMD8 cells.
